Where two headings read alike, the source gives them in different places.
What was measured:
Format in all cases: in vivo
Setaria faberi = assay: greenhouse post-emergence herbicidal activity, SETFA; details: Setaria faberi, post-emergence, 480 h, GS 11-33, 20 DAT, read-out: % activity (solo application)
Protocol: (§1) The following examples serve to illustrate the invention.
(§2) The culture containers used were plastic pots containing loamy sand with approximately 3.0% of humus as substrate. The seeds of the test plants were sown separately for each species.
(§3) For the post-emergence treatment, the test plants were grown to a plant height of from 3 to 15 cm, depending on the plant habit, and only then treated with the active compounds which had been suspended or emulsified in water. To this end, the test plants were either sown directly, and grown in the same containers, or they were first grown separately as seedlings and transplanted into the test containers a few days prior to treatment.
(§4) Depending on the species, the plants were kept at 10-25 °C and 20-35 °C, respectively. The test period extended over 2 to 4 weeks. During this time, the plants were tended and their response to the individual treatments was evaluated.
(§5) Evaluation was carried out using a scale from 0 to 100. 100 means no emergence of the plants, or complete destruction of at least the above-ground parts, and 0 means no damage or normal course of growth. A good herbicidal activity is given at values of at least 70, and very good herbicidal activity is given at values of at least 85.
(§6) The respective stated components A and B, and if appropriate, C were formulated as a 5% by weight strength emulsion concentrate and, with addition of the amount of solvent system, introduced into the spray liquor used for applying the active compound. In the examples, the solvent used was water.
(§7) In the examples below, using the method of S. R. Colby (1967) “Calculating synergistic and antagonistic responses of herbicide combinations”, Weeds 15, p. 22ff., the value E, which is expected if the activity of the individual active compounds is only additive, was calculated.
(§8) E=X+Y−(X·Y/100) • where • X=percent activity using active compound A at an application rate a; • Y=percent activity using active compound B at an application rate b; • E=expected activity (in %) by A+B at application rates a+b.
(§9) The plants used in the greenhouse experiments were of the following species
(§10) In this context, a.i. means active ingredient, based on 100% active ingredient.
(§11) As indicated the application was post emergent (POST) at the respective growth stage (GS) of the weed.
(§12) Assessment was at the indicated days after treatment (DAT).

Digitaria sanguinales = assay: greenhouse post-emergence herbicidal activity, DIGSA
Protocol: as §1, §2, §3, §4, §5, §6, §7, §8, §9, §10, §11, §12

Echinocloa crus-galli = assay: greenhouse post-emergence herbicidal activity, ECHCG; details: for activity at 0.4 g/ha: Echinochloa crus-galli, post-emergence, 0.4 gai/ha, read-out: % activity (solo application); for % activity: solo application, ECHCG
Protocol: as §1, §2, §3, §4, §5, §6, §7, §8, §9, §10, §11, §12

Eleusine indica = assay: greenhouse post-emergence herbicidal activity, ELEIN; details: read-out: % activity (solo application); for activity at 0.4 g/ha: 0.4 gai/ha
Protocol: as §1, §2, §3, §4, §5, §6, §7, §8, §9, §10, §11, §12

Kochia scoparia = assay: greenhouse post-emergence herbicidal activity, KCHSC; details: for activity at 0.4 g/ha: 0.4 gai/ha; for % activity: solo application, KCHSC
Protocol: as §1, §2, §3, §4, §5, §6, §7, §8, §9, §10, §11, §12

Amaranthus tamariscinus = assay: greenhouse post-emergence herbicidal activity, AMATA; details: read-out: % activity (solo application); for activity at 0.4 g/ha: 0.4 gai/ha
Protocol: as §1, §2, §3, §4, §5, §6, §7, §8, §9, §10, §11, §12

Sorghum halepense = assay: greenhouse post-emergence herbicidal activity, SORHA; details: GS 11-33, 20 DAT
Protocol: as §1, §2, §3, §4, §5, §6, §7, §8, §9, §10, §11, §12

Brachiaria decumbens = assay: greenhouse post-emergence herbicidal activity, BRADC; details: for activity at […]: Urochloa decumbens, post-emergence, read-out: % activity (solo application)
Protocol: as §1, §2, §3, §4, §5, §6, §7, §8, §9, §10, §11, §12

Abutilon theophrasti = assay: greenhouse post-emergence herbicidal activity, ABUTH; details: read-out: % activity (solo application); for activity at 0.4 g/ha: 0.4 gai/ha; for activity at 0.8 g/ha: 0.8 gai/ha
Protocol: as §1, §2, §3, §4, §5, §6, §7, §8, §9, §10, §11, §12

Lolium multiflorum = assay: greenhouse post-emergence herbicidal activity, LOLMU; details: for activity at […]: Lolium multiflorum, post-emergence, 3.2 gai/ha, read-out: % activity (solo application)
Protocol: as §1, §2, §3, §4, §5, §6, §7, §8, §9, §10, §11, §12

Avena fatua = assay: greenhouse post-emergence herbicidal activity, AVEFA; details: read-out: % activity (solo application); for activity at 0.4 g/ha: 0.4 gai/ha
Protocol: as §1, §2, §3, §4, §5, §6, §7, §8, §9, §10, §11, §12

Commenline benghalensis = assay: greenhouse post-emergence herbicidal activity, COMBE; details: read-out: % activity (solo application); for activity at […]: 168 h, GS 11-33, 7 DAT
Protocol: as §1, §2, §3, §4, §5, §6, §7, §8, §9, §10, §11, §12

Setaria viridis = assay: greenhouse post-emergence herbicidal activity, SETVI; details: for activity at 0.4 g/ha / activity at 0.8 g/ha / activity at […]: Setaria viridis, post-emergence, read-out: % activity (solo application); for activity at 0.4 g/ha: 0.4 gai/ha; for activity at 0.8 g/ha: 0.8 gai/ha; for % activity: solo application, SETVI
Protocol: as §1, §2, §3, §4, §5, §6, §7, §8, §9, §10, §11, §12

[1] = GS 11-33, 20 DAT, use rate 0.4 gai/ha
[2] = 480 h, GS 11-33, 20 DAT, 3.2 gai/ha
[3] = 192 h, GS 11-33, 8 DAT, 3.2 gai/ha
[4] = 168 h, GS 11-33, 7 DAT, 3.2 gai/ha
[5] = 480 h, GS 11-33, 20 DAT, 1.6 gai/ha

C=C[C@]1(C(=O)N[C@H]2CO[C@@H](C(=O)OC)C2)CC(c2cc(F)cc(F)c2)=NO1 (mixture of isomers) [ISOX-8, methyl (2RS,4RS)-4-({[(5S)-3-(3,5-difluorophenyl)-5-vinyl-4,5-dihydroisoxazol-5-yl]carbonyl}amino)tetrahydrofuran-2-carboxylate]
20%: activity at 0.4 g/ha (Setaria faberi; 0.4 gai/ha) | % activity (Brachiaria decumbens; solo application, BRADC, GS 11-33, 20 DAT, use rate 1.6 gai/ha) | activity at […] (Abutilon theophrasti; [2])
40%: activity at 0.4 g/ha (Amaranthus tamariscinus; 168 h, GS 11-33, 7 DAT) | activity at […] (Setaria viridis; [3]) | % activity (Setaria viridis; GS 11-33, 8 DAT, use rate 3.2 gai/ha)
55%: activity at […] (Kochia scoparia; Bassia scoparia, post-emergence, 168 h, GS 11-33, 7 DAT, 3.2 gai/ha, read-out: % activity (solo application)) | % activity (Kochia scoparia; GS 11-33, 7 DAT, use rate 3.2 gai/ha) | activity at 0.8 g/ha (Sorghum halepense; Sorghum halepense, post-emergence, 480 h, 0.8 gai/ha, isoxazolin, read-out: % activity (solo application))
5%: activity at 0.4 g/ha (Eleusine indica; 480 h, GS 11-33, 20 DAT) | activity at 0.4 g/ha (Abutilon theophrasti; 168 h, GS 11-33, 7 DAT) | activity at 0.8 g/ha (Abutilon theophrasti; 168 h, GS 11-33, 7 DAT) | activity at 0.4 g/ha (Abutilon theophrasti; 480 h, GS 11-33, 20 DAT) | activity at 0.8 g/ha (Abutilon theophrasti; 480 h, GS 11-33, 20 DAT)
25%: activity at 0.8 g/ha (Kochia scoparia; Bassia scoparia, post-emergence, 168 h, GS 11-33, 7 DAT, 0.8 gai/ha, isoxazolin, read-out: % activity (solo application)) | activity at […] (Brachiaria decumbens; 192 h, GS 11-33, 8 DAT, 1.6 gai/ha) | activity at 0.4 g/ha (Avena fatua; 168 h, GS 11-33, 7 DAT) | activity at 0.8 g/ha (Setaria viridis; 192 h, GS 11-33, 8 DAT) | activity at 0.8 g/ha (Setaria viridis; 480 h, GS 11-33, 20 DAT)
30%: activity at […] (Brachiaria decumbens; [2])
15%: activity at 0.4 g/ha (Echinocloa crus-galli; 168 h, GS 11-33, 7 DAT) | activity at […] (Abutilon theophrasti; [4]) | activity at 0.4 g/ha (Commenline benghalensis; 480 h, GS 11-33, 20 DAT, 0.4 gai/ha)
50%: activity at […] (Brachiaria decumbens; [3]) | activity at […] (Lolium multiflorum; 168 h, GS 11-33, 7 DAT) | % activity (Lolium multiflorum; solo application, LOLMU, GS 11-33, 7 DAT, use rate 3.2 gai/ha) | activity at […] (Setaria viridis; [5])
80%: activity at […] (Lolium multiflorum; 480 h, GS 11-33, 20 DAT)
45%: activity at […] (Commenline benghalensis; 1.6 gai/ha) | activity at […] (Commenline benghalensis; 3.2 gai/ha)
35%: % activity (Echinocloa crus-galli; GS 11-33, 20 DAT, use rate 0.8 gai/ha) | activity at 0.4 g/ha (Amaranthus tamariscinus; 480 h, GS 11-33, 20 DAT) | % activity (Sorghum halepense; solo application, SORHA, use rate 0.8 gai/ha)
10%: activity at 0.4 g/ha (Digitaria sanguinales; Digitaria, post-emergence, 192 h, GS 11-33, 8 DAT, 0.4 gai/ha, read-out: % activity (solo application)) | % activity (Digitaria sanguinales; solo application, DIGSA, GS 11-33, 20 DAT, use rate 0.8 gai/ha) | activity at 0.4 g/ha (Echinocloa crus-galli; 480 h, GS 11-33, 20 DAT) | % activity (Echinocloa crus-galli; [1]) | activity at 0.4 g/ha (Eleusine indica; 168 h, GS 11-33, 7 DAT) | activity at 0.4 g/ha (Kochia scoparia; Bassia scoparia, post-emergence, 168 h, GS 11-33, 7 DAT, read-out: % activity (solo application)) | activity at 0.4 g/ha (Kochia scoparia; Bassia scoparia, post-emergence, 480 h, GS 11-33, 20 DAT, read-out: % activity (solo application)) | % activity (Kochia scoparia; [1]) | activity at […] (Abutilon theophrasti; 168 h, GS 11-33, 7 DAT, 1.6 gai/ha) | activity at 0.4 g/ha (Setaria viridis; 192 h, GS 11-33, 8 DAT) | activity at 0.4 g/ha (Setaria viridis; 480 h, GS 11-33, 20 DAT) | % activity (Setaria viridis; GS 11-33, 8 DAT, use rate 0.4 gai/ha)
90%: activity at […] (Setaria faberi; 3.2 gai/ha) | activity at […] (Avena fatua; [2])
75%: activity at 0.8 g/ha (Amaranthus tamariscinus; 480 h, GS 11-33, 20 DAT, 0.8 gai/ha)
70%: activity at […] (Eleusine indica; [2]) | activity at […] (Kochia scoparia; Bassia scoparia, post-emergence, 480 h, GS 11-33, 20 DAT, 3.2 gai/ha, read-out: % activity (solo application)) | activity at […] (Avena fatua; [4])
85%: activity at […] (Sorghum halepense; Sorghum halepense, post-emergence, 480 h, 3.2 gai/ha, read-out: % activity (solo application)) | activity at […] (Avena fatua; [5]) | activity at […] (Setaria viridis; [2])
60%: activity at […] (Setaria faberi; 1.6 gai/ha) | activity at […] (Digitaria sanguinales; Digitaria, post-emergence, 480 h, GS 11-33, 20 DAT, 3.2 gai/ha, read-out: % activity (solo application)) | activity at […] (Kochia scoparia; Bassia scoparia, post-emergence, 480 h, GS 11-33, 20 DAT, 1.6 gai/ha, read-out: % activity (solo application)) | activity at […] (Sorghum halepense; Sorghum halepense, post-emergence, 480 h, 1.6 gai/ha, read-out: % activity (solo application)) | activity at 0.4 g/ha (Avena fatua; 480 h, GS 11-33, 20 DAT)
